One assay concerns the target Large T antigen (Simian virus 40, UniProt P03070). In kind it is functional, Betapolyomavirus macacae.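 Further: Confirmatory-stage PubChem screen for compounds that inhibit SV40 T antigen.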
In assay [1] the target is T1, Polyadenylate-binding protein 1 (Homo sapiens, UniProt P11940). Kind of assay: PABP1 MLLE–PAM2 interaction inhibitors, dose response, miRNA deadenylation inhibitor project, biochemical, fluorescence polarization, Cy5-PAM2 peptide, secondary (AID 602260). The note with it: read-out: IC50_Mean. The class given is functional. For orientation: In fluorescence polarisation assays a small probe gives low polarisation when free and higher when bound to something large.
T1 sequence (P11940 whole entry): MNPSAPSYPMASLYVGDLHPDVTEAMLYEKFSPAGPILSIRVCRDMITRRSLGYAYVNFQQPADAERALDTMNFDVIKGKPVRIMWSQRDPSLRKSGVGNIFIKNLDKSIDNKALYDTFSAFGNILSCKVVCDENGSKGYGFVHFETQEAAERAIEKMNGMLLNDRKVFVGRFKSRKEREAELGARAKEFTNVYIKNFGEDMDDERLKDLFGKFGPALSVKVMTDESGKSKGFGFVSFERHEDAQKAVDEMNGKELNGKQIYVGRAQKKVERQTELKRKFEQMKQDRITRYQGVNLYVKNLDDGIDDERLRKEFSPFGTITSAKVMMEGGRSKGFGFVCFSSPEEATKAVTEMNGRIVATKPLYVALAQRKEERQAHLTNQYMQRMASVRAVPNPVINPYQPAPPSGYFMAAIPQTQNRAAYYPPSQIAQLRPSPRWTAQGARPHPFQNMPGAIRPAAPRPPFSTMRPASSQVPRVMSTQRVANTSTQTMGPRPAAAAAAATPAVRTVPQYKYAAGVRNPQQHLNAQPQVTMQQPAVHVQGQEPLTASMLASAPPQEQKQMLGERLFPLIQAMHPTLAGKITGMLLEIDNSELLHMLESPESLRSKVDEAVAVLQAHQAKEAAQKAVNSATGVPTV

In assay [2] the target is T1, Polyadenylate-binding protein 1. The assay is described as follows: PABP1 MLLE–PAM2 binding inhibitor potency, dose response, biochemical, fluorescence polarization, FITC-PAM2 peptide (AID 602259). The class given is functional. The note with it: read-out: IC50_Mean.
The target of assay [3] is Induced myeloid leukemia cell differentiation protein Mcl-1 (Homo sapiens, UniProt Q07820). The class given is functional.
Sequence of Induced myeloid leukemia cell differentiation protein Mcl-1 (Q07820 whole entry): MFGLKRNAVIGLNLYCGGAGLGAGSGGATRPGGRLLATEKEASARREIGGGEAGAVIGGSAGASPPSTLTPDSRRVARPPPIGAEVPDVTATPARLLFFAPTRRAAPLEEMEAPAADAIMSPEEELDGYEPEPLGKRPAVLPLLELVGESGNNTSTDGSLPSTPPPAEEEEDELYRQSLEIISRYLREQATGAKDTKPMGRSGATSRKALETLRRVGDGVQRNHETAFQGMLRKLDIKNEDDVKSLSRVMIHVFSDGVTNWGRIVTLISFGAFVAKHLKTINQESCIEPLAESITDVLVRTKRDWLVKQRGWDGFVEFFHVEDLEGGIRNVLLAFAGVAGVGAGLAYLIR
Another assay has as its system HEK293. The assay is described as follows: inhibitors of LMP1-driven NF-kB reporter, dose response, cell-based, HEK293, luciferase, cherry-pick (AID 588343). The class given is functional. The note with it: Homo sapiens.
Assay [4] concerns the target FAD-linked sulfhydryl oxidase ALR (Homo sapiens, UniProt P55789). The assay is described as follows: inhibitors of human ALR sulfhydryl oxidase, dose response, biochemical, H2O2 detection, luminescence, cherry-pick (AID 493248).
The next assay relates to H9c2. Kind of assay: cells. The class given is functional, cell-based. The note with it: Rattus norvegicus, H9c2, Myocardium.
The target in the next assay is Cytochrome P450 2D6 (Homo sapiens, UniProt P10635).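 Further: CYP2D6 member of a cytochrome P450 panel assay.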
Sequence of Cytochrome P450 2D6 (P10635 whole entry): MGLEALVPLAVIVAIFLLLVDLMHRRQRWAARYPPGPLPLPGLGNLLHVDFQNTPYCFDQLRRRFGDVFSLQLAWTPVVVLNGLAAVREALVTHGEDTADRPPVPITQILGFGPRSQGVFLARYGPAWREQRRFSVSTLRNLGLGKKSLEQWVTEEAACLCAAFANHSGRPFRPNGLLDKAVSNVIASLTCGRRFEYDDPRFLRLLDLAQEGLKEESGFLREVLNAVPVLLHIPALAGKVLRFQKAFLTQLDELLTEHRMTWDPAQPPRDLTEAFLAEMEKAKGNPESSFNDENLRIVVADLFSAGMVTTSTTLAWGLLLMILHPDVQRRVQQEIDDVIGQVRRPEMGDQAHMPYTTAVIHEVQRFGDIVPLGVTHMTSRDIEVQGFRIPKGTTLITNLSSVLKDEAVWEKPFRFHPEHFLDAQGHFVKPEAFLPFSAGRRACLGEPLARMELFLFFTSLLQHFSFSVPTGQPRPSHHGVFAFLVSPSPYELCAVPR
Assay [5] deals with T2, RNA-binding protein pos-1 (Caenorhabditis elegans, UniProt G5EF15).
T2 sequence (G5EF15 whole entry): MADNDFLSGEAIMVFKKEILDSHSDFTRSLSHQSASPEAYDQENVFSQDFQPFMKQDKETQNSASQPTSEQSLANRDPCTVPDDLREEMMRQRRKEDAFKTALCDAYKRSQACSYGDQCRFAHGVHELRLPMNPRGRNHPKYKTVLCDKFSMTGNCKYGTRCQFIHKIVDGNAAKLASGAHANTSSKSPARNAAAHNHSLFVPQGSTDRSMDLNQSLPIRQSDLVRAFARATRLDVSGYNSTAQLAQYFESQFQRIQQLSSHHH
Kind of assay: inhibitors of POS-1/mex-3 RNA binding, dose response, biochemical, fluorescence polarization (AID 1964).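 Further: purified POS-1 fused to maltose binding protein made in E. coli; potency of compounds blocking POS-1 binding to fluorescent RNA.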

The target of assay [6] is T3, Zinc finger protein mex-5 (Caenorhabditis elegans, UniProt Q9XUB2).
T3 sequence (Q9XUB2 whole entry): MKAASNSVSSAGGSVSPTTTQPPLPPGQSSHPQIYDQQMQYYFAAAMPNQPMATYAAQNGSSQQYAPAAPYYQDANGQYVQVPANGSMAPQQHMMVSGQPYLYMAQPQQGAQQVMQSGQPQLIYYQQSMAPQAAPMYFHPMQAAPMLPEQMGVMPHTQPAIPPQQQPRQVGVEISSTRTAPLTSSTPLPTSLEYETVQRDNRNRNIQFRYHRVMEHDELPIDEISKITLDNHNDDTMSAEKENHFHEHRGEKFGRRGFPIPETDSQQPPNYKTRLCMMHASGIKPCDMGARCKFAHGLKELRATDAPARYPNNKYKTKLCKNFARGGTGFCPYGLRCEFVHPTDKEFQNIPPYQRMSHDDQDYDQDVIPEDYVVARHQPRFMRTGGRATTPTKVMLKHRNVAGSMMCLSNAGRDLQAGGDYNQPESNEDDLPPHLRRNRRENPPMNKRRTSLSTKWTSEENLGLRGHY
The assay is described as follows: MEX-5/TCR-2 RNA interaction inhibitors, dose response, biochemical, C. elegans, fluorescence polarization (AID 1960).

Assay [7] addresses Luciferin 4-monooxygenase (Photinus pyralis, UniProt P08659). Kind of assay: firefly luciferase enzyme inhibitors, dose response, biochemical, luminescence (AID 1891).
A short description of assay [8]: Luminescence Cell-Based Dose Confirmation HTS to Identify Inhibitors of Platelet Dense Granule Release. [Related pubchem assays: 1663 (Primary HTS), 1678 (Summary of Project)]. The class given is functional.

Usually AC50 stands for the concentration at which the activity in the assay is half-maximal. The EC50 is the concentration giving half of the maximal effect.

Calls of active or inactive are those of the source.

Sequence of Large T antigen (P03070 whole entry): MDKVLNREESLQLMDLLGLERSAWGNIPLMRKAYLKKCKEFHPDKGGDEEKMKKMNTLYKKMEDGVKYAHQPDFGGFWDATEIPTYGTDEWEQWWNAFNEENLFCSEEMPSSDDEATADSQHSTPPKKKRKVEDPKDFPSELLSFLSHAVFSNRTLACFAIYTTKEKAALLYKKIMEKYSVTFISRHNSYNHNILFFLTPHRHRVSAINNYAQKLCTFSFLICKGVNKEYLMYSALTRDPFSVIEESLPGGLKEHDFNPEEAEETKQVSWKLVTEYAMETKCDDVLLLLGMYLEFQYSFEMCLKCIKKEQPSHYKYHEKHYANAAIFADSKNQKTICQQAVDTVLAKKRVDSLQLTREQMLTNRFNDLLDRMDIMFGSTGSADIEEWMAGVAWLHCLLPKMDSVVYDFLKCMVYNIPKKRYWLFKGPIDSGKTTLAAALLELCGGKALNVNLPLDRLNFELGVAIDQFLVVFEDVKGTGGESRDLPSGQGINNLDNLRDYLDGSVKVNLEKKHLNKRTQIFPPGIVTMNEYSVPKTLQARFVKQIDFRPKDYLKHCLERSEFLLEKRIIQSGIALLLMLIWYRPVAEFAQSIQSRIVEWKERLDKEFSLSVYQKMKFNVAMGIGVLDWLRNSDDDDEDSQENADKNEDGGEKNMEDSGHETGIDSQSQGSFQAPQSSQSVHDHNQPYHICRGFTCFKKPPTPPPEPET
Sequence of FAD-linked sulfhydryl oxidase ALR (P55789 whole entry): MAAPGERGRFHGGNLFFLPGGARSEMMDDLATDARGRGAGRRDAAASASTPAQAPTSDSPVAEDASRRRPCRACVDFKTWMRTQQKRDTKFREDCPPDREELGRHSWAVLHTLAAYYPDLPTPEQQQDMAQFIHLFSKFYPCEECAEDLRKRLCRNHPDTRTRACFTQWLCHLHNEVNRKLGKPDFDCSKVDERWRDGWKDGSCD
Sequence of Luciferin 4-monooxygenase (P08659 whole entry): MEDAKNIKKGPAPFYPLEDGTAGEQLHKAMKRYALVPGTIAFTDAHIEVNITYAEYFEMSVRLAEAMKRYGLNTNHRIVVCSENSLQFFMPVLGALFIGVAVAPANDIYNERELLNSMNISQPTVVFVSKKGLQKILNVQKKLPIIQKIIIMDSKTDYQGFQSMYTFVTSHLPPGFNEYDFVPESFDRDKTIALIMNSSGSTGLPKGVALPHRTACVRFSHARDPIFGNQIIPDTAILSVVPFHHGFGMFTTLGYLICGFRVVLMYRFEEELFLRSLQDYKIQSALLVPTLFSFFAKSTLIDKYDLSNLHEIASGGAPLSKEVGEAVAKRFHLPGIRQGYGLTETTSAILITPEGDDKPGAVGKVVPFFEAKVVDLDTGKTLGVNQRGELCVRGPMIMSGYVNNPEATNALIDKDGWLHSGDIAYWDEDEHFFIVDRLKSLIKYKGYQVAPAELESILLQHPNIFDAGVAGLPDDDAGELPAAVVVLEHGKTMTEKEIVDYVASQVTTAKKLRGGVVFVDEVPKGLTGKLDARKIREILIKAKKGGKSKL

As for `C=CCNC(S)=NNC(=O)c1cc(O)ccc1O`, the IC50 on Large T antigen was > 100 µM (active).

As for `COc1cc(-c2cc(=O)c3ccc(O)cc3o2)cc(OC)c1OC`, the IC50 is > 66 µM (inactive) in assay [1] and 33.7 µM (inactive) in assay [2].

Turning to `COc1ccc(-c2ccc3c(n2)sc2c(=O)[nH]c(=O)[nH]c23)cc1OC`, the IC50 in assay [3] is 1.76 µM (active).

On to `Cc1ccc(C(=O)Nc2cccc(C(=O)N/N=C/c3ccccc3F)c2)cc1`, for which, in the assay on HEK293, the AC50 is 7.43 µM (active).

In the case of `O=C(Nc1ccc(O)cc1)/C(=C\c1cccs1)NC(=O)c1ccccc1`, the IC50 on Large T antigen is 23 µM (active).

For the compound `CN(C)c1ccc(C(CNC(=O)c2ccc(F)cc2)c2c[nH]c3ccccc23)cc1` (centres undefined), the IC50 in [3] is recorded as 3.08 µM (not active).

As to `NNC(=O)c1cc(-c2ccccc2)sc1N`, the IC50 on Large T antigen is 17.2 µM (active). In addition, in [4], the half-maximal activity concentration (AC50) was 8.45 µM (active).

On to `COc1ccc(/C=N/NC(=O)c2cc[nH]n2)cc1COc1ccc(Cl)cc1`, for which the IC50 in the assay with H9c2 is > 79 µM (inactive). Moreover, the AC50 at Cytochrome P450 2D6 was 25.1 µM (inconclusive).

As for `CC(=O)Nc1ccc(SCC(=O)NC(=O)c2ccccc2Br)cc1`, the IC50 in assay [1] and in assay [2] was > 66 µM (inactive) throughout.

As to `Cc1cc(O)c(C(C)C)cc1N=C1CSC(=O)N1`, the values for the concentration giving a half-maximal response (EC50) in [5] and in [6] were 38.9 µM (active) and 34.6 µM (active), respectively.

Regarding `C=CCn1c(N)c(C(=O)OCC)sc1=S`, the IC50 in assay [1] and in assay [2] was > 66 µM (inactive) in each case.

As for `CCN(CC)C(=O)c1cc2c(=O)c3cc(Cl)ccc3oc2nc1C`, the half-maximal effective concentration (EC50) in assay [5] and in assay [6] was > 300 µM (not active) in each case.

Regarding `CCCOc1cccc(C2C(C(=O)c3ccco3)=C(O)C(=O)N2c2nnc(C)s2)c1` (centres undefined), the 50% effective concentration (EC50) is 51.9 µM (active) in assay [5] and 82.7 µM (active) in assay [6].

For the compound `Cc1c(NC(=O)CSc2ccc(Cl)cc2)cccc1-c1nc2cc(Cl)ccc2o1`, the EC50 in assay [5] and in assay [6] was > 300 µM (not active) throughout.

For `O=S(=O)(NC(=S)NC1CCCCC1)c1cccs1`, the IC50 in assay [1] and in assay [2] was > 66 µM (inactive) each time.

Consider `COc1ccccc1C(N)=S`, for which the IC50 in [1] and in assay [2] was > 66 µM (inactive) throughout.

Take `CN(C)c1ccc(NC(=O)c2ccc3[nH]cnc3c2)cc1`: at Large T antigen, the IC50 is 6.99 µM (active).

Turning to `COc1ccc(C(=O)Nc2nnc(SCC(=O)NC3CC3)s2)cc1`, the concentration at half-maximal activity (AC50) in the assay with HEK293 was 4.42 µM (active).

`O=C1NC(=O)N(Cc2ccccc2)C(=O)/C1=C/Nc1ccc(CN2CCOCC2)cc1`: the EC50 in assay [5] and in [6] was > 300 µM (not active) throughout.

As to `O=C(O)CCC(=O)Nc1ccc(SSc2ccc(NC(=O)CCC(=O)O)cc2)cc1`, the IC50 at Large T antigen is 5.39 µM (active).

Turning to `O=C(O)CCc1nc(-c2cccs2)no1`, the IC50 in assay [3] is on record as 17.6 µM (not active).

In the case of `Oc1nc(CN2CC=C(c3ccccc3)CC2)nc2cc(C(F)(F)F)ccc12`, the EC50 in assay [7] and in assay [8] was > 112 µM (not active) each time. For the same compound, the AC50 in the assay with HEK293 is > 350 µM (inactive).

As to `CCc1ccc(C(N)=S)cc1`, the IC50 in assay [1] and in [2] was > 66 µM (inactive) each time.

Take `COCCn1/c(=N/C(=O)c2nc3ccccc3s2)sc2cc(S(C)(=O)=O)ccc21`: the IC50 with H9c2 is > 79 µM (inactive).

Source of the values: ChEMBL document CHEMBL1201862, “PubChem BioAssay data set” (2004).
